Literature values as cited in patent US20190022229A1, “CANNABINOID/TERPENE ENRICHED CAPRYLIC ACID” (priority 2017, published 2019).

Conditions: over an eight-hour period; compared with capric acid (C10) alone; from Vandenberghe et al. 2016

SMILES: CCCCCCCC(=O)O [caprylic acid]
- increase in total plasma ketone levels relative to capric acid (C10) alone: approximately three times more
